One may read the DC50 as the concentration giving 50% degradation. Read a low DC50 as a more potent degrader.

Like-named read-outs stand apart in the source and are kept apart here.

Data on 18 molecules can be found in patent US20250049929A1, “NOVEL TETRAHYDROQUINOLINES AND PROTEOLYSIS TARGETING CHIMERA (PROTACS) COMPRISING THEM AS DEGRADERS OF SMARCA” (Boehringer Ingelheim International GmbH, priority 2021, published 2025).

In assay [1] the target is T1, SMARCA2BD (Homo sapiens, UniProt P51531).
T1 construct: the SMARCA2BD prepared at 0.5-0.7 mg/mL in coupling buffer
The assay is described as follows: Binary SMARCA2 binding affinity determination (A2 binary): SMARCA2 SPR binding experiments. The protocol:
Binary SMARCA2 Binding Affinity Determination (A2 Binary [nM]):
SMARCA2 SPR Binding Experiments
SPR experiments were performed on Biacore 8K or T200 instruments (GE Healthcare). Immobilization of target protein was carried out at 25° C. on a CM5 chip using amine coupling (EDC/NHS, GE Healthcare) in HBS-P+ running buffer, containing 2 mM TCEP, pH 7.4. […] The surface was deactivated using 1 M ethanolamine.
All interaction experiments were performed at 6° C. in running buffer containing 20 mM TRIS, 150 mM potassium chloride, 2 mM magnesium chloride, 2 mM TCEP, 0.005% TWEEN 20, 1% dimethyl sulfoxide; pH 8.3. Sensorgrams from reference surfaces and blank injections were subtracted from the raw data prior to data analysis using Biacore T200 or Biacore 8K evaluation software. Sensorgrams recorded at different compound concentrations in multi-cycle experiments were fitted using a 1:1 interaction model, with a term for mass-transport included.
A general note: In SPR one partner is held on a chip, and binding of the other changes the refractive index at the surface.

For assay [2], the target named is T2, SMARCA4 (Homo sapiens, UniProt P51532).
T2 construct: endogenous in cells; host or cells: RKO cells (CRL-2577, ATCC)
Description: SMARCA4 degradation analysis by imaging in RKO cells (DC50 A4). The assay is classed as cell-based. Particulars: tables 69, 70, 73, 76-78. How it is done: (§1) Determination of SMARCA2 and SMARCA4 Degradation (DC50 A2 and A4 [nM])
(§2) Protein Degradation Assays for SMARCA2 and SMARCA4
(§3) For degradation analysis by imaging, 1250 RKO cells (CRL-2577, ATCC) per well were seeded into 60 μL DMEM (Sigma Aldrich) supplemented with 10% FBS (Hyclone) in 384-well flat bottom plates (CellCarrier Ultra, Perkin Elmer) and incubated at 37° C. and 5% CO2 in a humidified atmosphere overnight. Compounds were added the next day using an Access Labcyte Workstation with a Labcyte Echo 550 or 555 acoustic dispenser and incubated with the cells for 4 or 24 h. Cells were fixed by adding 25 μL fixation buffer (7.4% formaldehyde (Sigma Aldrich F8775), 0.2% Triton TX100 (Sigma Aldrich F93443) in PBS) for 15 minutes at room temperature. After aspirating the fixing solution, the cells were washed once with 25 μL PBS and 25 μL of Blocking Buffer (10% Goat Serum in PBS) were added to each well and incubated for 30 minutes. Cells were washed with PBS and incubated with 20 μL mouse anti-Smarca4 (BRG1) antibody (Cell Signaling #52251) or rabbit anti-Smarca2 (BRM) antibody (Sigma Aldrich HPA029981) in blocking solution (PBS with 10% FCS) for ca. 2-4 h at RT. For detection of the nuclei, 25 μL of 5 μg/mL Hoechst 33342 (stock 10 mg/mL in H2O; Invitrogen H1399) were added together with Alexa Fluor 647 goat anti-mouse IgG (Invitrogen A-21235) or Alexa Fluor 488 goat anti-rabbit IgG (Invitrogen A-11034) in blocking solution and incubated for 60 min at RT. The cell layer was washed with 25 μL PBS, the wells were filled with 25 μL PBS and the plates sealed with an adhesive sheet. The mean intensity at 488 or 647 nm in the nucleus was measured using an Opera Phenix Plus High-Content Screening System (Perkin Elmer), values were normalized to the background and DMSO control and DC50 values were calculated and analyzed using a four-parametric logistic model.

Assay [3] has as its target T3, SMARCA2 (Homo sapiens, UniProt P51531).
T3 construct: endogenous in cells; host or cells: RKO cells (CRL-2577, ATCC)
The assay is described as follows: SMARCA2 degradation analysis by imaging in RKO cells (DC50 A2). The assay is classed as cell-based. Particulars: tables 69, 70, 73, 76-78. The protocol: as §1, §2, §3

Where [4] appears, read: binary SMARCA2 binding affinity, SPR at 6° C., pH 8.3, read-out: A2 binary.

T1 sequence (P51531 1373-1493 isoform P51531-2 limits assumed): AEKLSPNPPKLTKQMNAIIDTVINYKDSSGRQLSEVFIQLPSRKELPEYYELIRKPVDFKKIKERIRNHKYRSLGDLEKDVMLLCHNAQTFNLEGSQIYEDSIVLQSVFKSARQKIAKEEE
T2 sequence (P51532 whole entry): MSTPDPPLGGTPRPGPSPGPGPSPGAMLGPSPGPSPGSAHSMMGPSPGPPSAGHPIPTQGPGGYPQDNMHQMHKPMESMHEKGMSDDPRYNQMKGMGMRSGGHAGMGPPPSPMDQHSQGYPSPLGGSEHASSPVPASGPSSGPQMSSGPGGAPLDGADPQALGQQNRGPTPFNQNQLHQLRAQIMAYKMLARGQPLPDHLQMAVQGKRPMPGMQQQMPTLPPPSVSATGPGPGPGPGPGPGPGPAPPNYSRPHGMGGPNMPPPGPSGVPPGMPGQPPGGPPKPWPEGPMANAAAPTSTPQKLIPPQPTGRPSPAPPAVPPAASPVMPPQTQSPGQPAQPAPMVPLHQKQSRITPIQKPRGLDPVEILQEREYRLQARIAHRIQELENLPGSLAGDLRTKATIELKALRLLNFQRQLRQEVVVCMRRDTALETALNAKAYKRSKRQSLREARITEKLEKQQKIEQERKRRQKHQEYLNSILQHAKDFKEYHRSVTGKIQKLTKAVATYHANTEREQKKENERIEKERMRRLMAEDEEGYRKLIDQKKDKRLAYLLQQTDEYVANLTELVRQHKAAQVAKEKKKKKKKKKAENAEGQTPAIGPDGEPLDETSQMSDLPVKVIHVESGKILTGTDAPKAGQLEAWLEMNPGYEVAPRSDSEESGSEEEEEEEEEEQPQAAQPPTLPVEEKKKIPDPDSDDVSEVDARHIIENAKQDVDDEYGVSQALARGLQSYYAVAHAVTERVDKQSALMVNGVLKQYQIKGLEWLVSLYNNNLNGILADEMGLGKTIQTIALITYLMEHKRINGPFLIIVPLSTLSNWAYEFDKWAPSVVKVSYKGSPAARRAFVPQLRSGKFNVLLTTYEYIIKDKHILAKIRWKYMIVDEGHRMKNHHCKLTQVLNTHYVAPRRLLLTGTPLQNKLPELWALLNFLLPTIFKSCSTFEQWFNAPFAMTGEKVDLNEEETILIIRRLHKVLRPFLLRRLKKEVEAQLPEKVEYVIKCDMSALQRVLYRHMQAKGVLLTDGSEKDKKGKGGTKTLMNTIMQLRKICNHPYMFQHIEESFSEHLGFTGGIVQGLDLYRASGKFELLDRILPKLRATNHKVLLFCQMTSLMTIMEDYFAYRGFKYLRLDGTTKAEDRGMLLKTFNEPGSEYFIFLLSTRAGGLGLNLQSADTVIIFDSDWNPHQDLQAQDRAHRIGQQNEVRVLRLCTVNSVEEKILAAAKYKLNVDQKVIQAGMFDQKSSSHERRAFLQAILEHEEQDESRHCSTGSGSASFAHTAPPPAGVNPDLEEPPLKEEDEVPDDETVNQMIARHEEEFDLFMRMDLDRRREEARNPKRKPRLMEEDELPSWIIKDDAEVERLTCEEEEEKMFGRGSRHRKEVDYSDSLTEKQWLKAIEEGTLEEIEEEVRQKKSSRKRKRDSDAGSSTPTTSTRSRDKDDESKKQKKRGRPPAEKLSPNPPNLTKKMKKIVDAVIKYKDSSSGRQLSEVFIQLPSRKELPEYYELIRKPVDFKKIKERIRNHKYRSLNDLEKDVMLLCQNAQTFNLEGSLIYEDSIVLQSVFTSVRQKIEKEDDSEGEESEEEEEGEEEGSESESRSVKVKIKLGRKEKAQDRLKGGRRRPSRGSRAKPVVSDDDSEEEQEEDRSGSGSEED
T3 sequence (P51531 whole entry): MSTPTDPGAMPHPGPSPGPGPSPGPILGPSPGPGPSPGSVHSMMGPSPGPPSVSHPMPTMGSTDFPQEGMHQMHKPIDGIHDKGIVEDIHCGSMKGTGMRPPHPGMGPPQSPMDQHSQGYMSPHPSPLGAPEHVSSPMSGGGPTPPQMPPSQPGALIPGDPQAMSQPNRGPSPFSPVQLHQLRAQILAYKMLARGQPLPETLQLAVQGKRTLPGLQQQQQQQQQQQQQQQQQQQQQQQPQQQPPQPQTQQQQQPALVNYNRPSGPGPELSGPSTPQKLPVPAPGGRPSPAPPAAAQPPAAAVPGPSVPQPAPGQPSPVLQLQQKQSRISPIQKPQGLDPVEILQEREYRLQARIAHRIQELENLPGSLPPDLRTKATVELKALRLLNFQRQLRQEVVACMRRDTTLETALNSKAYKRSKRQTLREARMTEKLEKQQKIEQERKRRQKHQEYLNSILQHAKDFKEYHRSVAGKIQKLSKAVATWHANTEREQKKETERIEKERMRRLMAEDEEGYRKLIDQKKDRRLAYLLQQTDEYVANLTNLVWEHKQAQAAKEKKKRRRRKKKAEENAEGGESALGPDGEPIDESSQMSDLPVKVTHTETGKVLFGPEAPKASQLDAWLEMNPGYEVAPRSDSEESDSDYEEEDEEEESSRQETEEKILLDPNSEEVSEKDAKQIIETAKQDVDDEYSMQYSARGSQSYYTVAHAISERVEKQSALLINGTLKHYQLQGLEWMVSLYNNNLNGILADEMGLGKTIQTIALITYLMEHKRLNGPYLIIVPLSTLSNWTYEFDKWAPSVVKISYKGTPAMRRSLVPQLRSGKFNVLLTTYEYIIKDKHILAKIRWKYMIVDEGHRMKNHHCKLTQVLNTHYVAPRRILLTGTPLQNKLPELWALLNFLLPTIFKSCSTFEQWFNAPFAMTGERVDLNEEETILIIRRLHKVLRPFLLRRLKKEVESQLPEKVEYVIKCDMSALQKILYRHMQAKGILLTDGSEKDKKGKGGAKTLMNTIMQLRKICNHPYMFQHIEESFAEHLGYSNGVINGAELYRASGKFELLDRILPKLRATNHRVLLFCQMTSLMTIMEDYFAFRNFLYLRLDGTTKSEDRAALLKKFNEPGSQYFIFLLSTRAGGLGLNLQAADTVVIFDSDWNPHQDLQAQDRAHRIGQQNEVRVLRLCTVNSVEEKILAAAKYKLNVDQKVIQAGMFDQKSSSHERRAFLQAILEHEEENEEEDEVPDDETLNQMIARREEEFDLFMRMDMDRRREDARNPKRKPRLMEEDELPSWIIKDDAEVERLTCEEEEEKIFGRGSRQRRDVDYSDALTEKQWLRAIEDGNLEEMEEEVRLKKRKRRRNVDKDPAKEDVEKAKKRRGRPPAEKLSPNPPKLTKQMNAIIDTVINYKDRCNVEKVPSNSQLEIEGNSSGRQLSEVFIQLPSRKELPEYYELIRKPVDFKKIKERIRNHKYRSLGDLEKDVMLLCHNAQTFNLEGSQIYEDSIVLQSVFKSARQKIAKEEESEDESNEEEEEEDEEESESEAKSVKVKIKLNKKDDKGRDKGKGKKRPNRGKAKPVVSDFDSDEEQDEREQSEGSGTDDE

Consider `O=c1nc2n(C3CCCC3)c3cc(C4CCNCC4)ccc3n2c2cccc(Br)c12` [Compound 28a, 4-bromo-7-cyclopentyl-9-(4-piperidyl)benzimidazolo[1,2-a]quinazolin-5-one], for which the Kd in assay [1] amounted to 0.048 µM. For the molecule `CCn1c2cc(C3CCNCC3)c(OCCOCCOC)cc2n2c3cccc(Br)c3c(=O)nc12` [Compound 28k], the Kd in assay [1] (setting [4]) was determined as 0.045 µM. For `N[C@H]1CC[C@H](c2ccc3c(c2)n(C2CCCC2)c2nc(=O)c4c(Br)cccc4n32)CC1` [Compound 28m], the Kd in assay [1] (setting [4]) was 0.029 µM.

Take `C[C@H]1CNCCN1c1ccc2c(c1)n(C1CCCC1)c1nc(=O)c3c(Br)cccc3n21` [Compound 28o]: the Kd in assay [1] (setting [4]) was determined as 0.04 µM. On to `C[C@@H]1CNCCN1c1ccc2c(c1)n(C1CCCC1)c1nc(=O)c3c(Br)cccc3n21` [Compound 28p], for which the Kd in assay [1] (setting [4]) was found to be 0.055 µM. `O=c1nc2n(C3CCCC3)c3cc(N4CCNCC4)ccc3n2c2cccc(Br)c12` [Compound 28r]: in assay [1] (setting [4]), the Kd came to 0.044 µM. As to `O=c1nc2n(C3CCCC3)c3cc(N4C[C@@H]5C[C@H]4CN5)ccc3n2c2cccc(Br)c12` [Compound 28s], the Kd in assay [1] (setting [4]) stood at 0.07 µM. `O=c1nc2n(C3CCCC3)c3cc(C4CCNCC4)c(OC[C@@H]4CCCO4)cc3n2c2cccc(Br)c12` [Compound 28v]: the Kd in assay [1] (setting [4]) came out at 0.045 µM. As to `COCCOCCOc1cc2c(cc1C1CCNCC1)n(C1CCCC1)c1nc(=O)c3c(Br)cccc3n21` [Compound 28y], the Kd in assay [1] (setting [4]) turned out to be 0.05 µM.

Turning to `CC(C)(C)OC(=O)N1CCC(c2ccc3c(c2)n(C2CCCC2)c2nc(=O)c4c(N)cccc4n32)CC1` [Compound 30a], the Kd in assay [1] (setting [4]) is 0.541 µM.

On to `CC(C)(C)OC(=O)Oc1cc2c(cc1C1CCN(C(=O)OC(C)(C)C)CC1)n(C1CCCC1)c1nc(=O)c3c(Br)cccc3n21` [Compound 33a], for which the Kd in assay [1] (setting [4]) was 0.157 µM. As to `Cc1ncsc1-c1ccc([C@H](COCCN2CCC(c3cc4c(cc3OC[C@@H]3CCCO3)n3c5cccc(Br)c5c(=O)nc3n4C3CCCC3)CC2)NC(=O)[C@@H]2C[C@@H](O)CN2C(=O)[C@@H](NC(=O)C2(F)CC2)C(C)(C)C)cc1` [Compound 42t], the half-maximal degradation concentration (DC50) is 0.067 µM in assay [2] and 0.003 µM in assay [3].

Take `Cc1ncsc1-c1ccc([C@H](C[C@@H](C)CN2CCC(c3ccc4c(c3)n(C3CCCC3)c3nc(=O)c5c(Br)cccc5n43)CC2)NC(=O)[C@@H]2C[C@@H](O)CN2C(=O)[C@@H](NC(=O)C2(F)CC2)C(C)(C)C)cc1` [Compound 42u]: the DC50 in assay [2] is 0.0007 µM; in assay [3], 0.0003 µM. Taken in the same sequence, the figures for `Cc1ncsc1-c1ccc([C@H](CO[C@@H](CN2CCC(c3ccc4c(c3)n(C3CCCC3)c3nc(=O)c5c(Br)cccc5n43)CC2)C2CC2)NC(=O)[C@@H]2C[C@@H](O)CN2C(=O)[C@@H](NC(=O)C2(F)CC2)C(C)(C)C)cc1` [Compound 42v] were above 0.833 µM and 0.011 µM. In the case of `CCOC(=O)c1ncsc1-c1ccc([C@H](CCCN2CCC(c3ccc4c(c3)n(C3CCCC3)c3nc(=O)c5c(Br)cccc5n43)CC2)NC(=O)[C@@H]2C[C@@H](O)CN2C(=O)[C@@H](NC(=O)C2(F)CC2)C(C)(C)C)cc1` [Compound 42w], the DC50 in assay [2] was 0.036 µM; in assay [3] it was 0.011 µM. `Cc1ncsc1-c1ccc([C@H](CCCN2CCC(c3ccc4c(c3)n(C3CCCC3)c3nc(=O)c5c(N)cccc5n43)CC2)NC(=O)[C@@H]2C[C@@H](O)CN2C(=O)[C@@H](NC(=O)C2(F)CC2)C(C)(C)C)cc1` [Compound 42x]: the DC50 in assay [2] was 0.002 µM; in assay [3], 0.0003 µM. With `Cc1ncsc1-c1ccc([C@H](CO[C@H](C)CN2CCC(c3ccc4c(c3)n(C3CCCC3)c3nc(=O)c5c(Br)cccc5n43)CC2)NC(=O)[C@@H]2C[C@@H](O)CN2C(=O)[C@@H](NC(=O)C2(N(C)C)CC2)C(C)(C)C)cc1` [Compound 42y], the DC50 in assay [2] was 0.101 µM; in assay [3], 0.006 µM. On to `Cc1ncsc1-c1ccc([C@H](CCCN2CCC(c3cc4c(cc3OCCOCCN3CCOCC3)n3c5cccc(Br)c5c(=O)nc3n4C3CCCC3)CC2)NC(=O)[C@@H]2C[C@@H](O)CN2C(=O)[C@@H](NC(=O)C2(F)CC2)C(C)(C)C)cc1` [Compound 42z], for which the DC50 in assay [2] was determined as 0.041 µM; in assay [3], 0.02 µM.
